Assay results as given in patent US6338963B1, “Use of carbon monoxide dependent guanylyl cyclase modifiers to stimulate neuritogenesis” (NeoTherapeutics, Inc., priority 1994, dated 2002).
Marks after values point to notes of the source that are not given here.

How the values were obtained:
38 isolated receptors = assay: Receptor ligand binding in vitro (Nova Labs)
adenosine receptor = assay: Receptor ligand binding in vitro, adenosine
Method: AIT-082 was evaluated for its ability to inhibit ligand binding to 38 isolated receptors.

Swiss Webster mice = assay: Win-shift test, Swiss Webster mice with age-induced memory deficits; type: in vivo; details: AIT-082 30 mg/kg
Method: Twelve-month old male Swiss Webster mice were screened for performance in the win-shift foraging test. Subjects were tested at various time delays, beginning at 10 seconds and increasing the inter-trial time interval to 30, 60, 90 and 120 seconds.
Subjects with severe impairment could not remember the correct response at 10 seconds while subjects with mild deficit could remember the correct response with a 30 second inter-trial interval but not at 60 seconds. Subjects with a moderate deficit could remember the correct response with a 10 second inter-trial interval but not […] at 30 seconds. Thus, the win-shift model can detect age-induced impairments in working memory. As will be appreciated by those skilled in the art, this observation is important since it provides the ability to use age-matched subjects with varying degrees of impairment for evaluation of potential therapeutic agents.
Following the establishment of a baseline, six subjects in each of the three groups were treated with AIT-82 (30 mg/kg, one hour before testing) or physostigmine (0.125 mg/kg, 30 minutes before testing) using the win-shift foraging test. The results are presented in Table L directly below and graphically represented in FIG. 9.

C57BL/6 mice = assay: Ethanol-induced working memory deficit (win-shift); type: in vivo; details: Ethanol 0.5 gm/kg i.p. + AIT-082 30 mg/kg i.p. 1 hour prior
Method: Six month old male C57BL/6 mice were evaluated in the win-shift model in combination with treatment with ethanol, a non-specific memory suppressant, and AIT-082. Subjects were treated with saline (control) or AIT-082 (30 mg/kg. i.p.) 1 hour prior to testing. Ethanol was administered at a dose of 0.5 gm/kg i.p. ten minutes prior to testing.

BDNF = assay: Two-site ELISA of growth factor protein in rat brain and spinal cord: BDNF; type: in vivo, F344 rats
Method: Adult female F344 rats were given either AIT-082 (doses: 30 mg/kg/day or a higher dose of 30 mg/ml (˜3,000 mg/kg/day); n=6 rats per group) in their drinking water, or water alone, as a vehicle for control. The duration of the study was seven days, at which time the rats were anesthesized and perfused with ice-cold saline. The brains of the rats were rapidly removed. The brains were placed on a chilled glass plate and dissected into the following regions: basal forebrain, frontal cortex, parietal cortex, cerebellum, spinal cord, and hippocampal formation. Tissues were stored at −70° C. until assayed in a specific two-site ELISA for either NGF, BDNF, NT-3, or GNDF.
The results are shown in FIGS. 45 (BDNF), 46 (NT-3), 47 (GDNF) and 48 (NGF). For the results shown in FIGS. 45-48, animals were given only water (VEH, n=6) or water with AIT-082 at either 30 mg/kg/day (n=6) or 30 mg/ml (n=6) for seven days. The levels of each growth factor were determined in the frontal cortex (F. Cor.), parietal cortex (P.Cor.), hippocampal formation (Hipp.), basal forebrain (B.F.), cerebellum (Cer.), or spinal cord (Cord) using a specific two-site ELISA for each growth factor.
Adult female rats were given AIT-082 (30 mg/kg/day) in their drinking water or drinking water alone (n=6 for each group) for seven days prior to receiving a bilateral fimbria fornix transection (FFT).
The results are shown in FIGS. 49 (BDNF), 50 (NT-3), 51 (GDNF) and 52 (NGF). For the results shown in the Figures, animals were given only water (VEH, n=3) or water with AIT-082 at 30 mg/kg/day (n=3). Levels of the growth factor were determined in frontal cortex (F.Cor.), parietal cortex (P.Cor.), hippocampal formation (Hipp.), basal forebrain (B.F.), cerebellum (Cer.), or spinal cord (Cord) using a specific two-site ELISA for each growth factor.
Aged female Fischer 344 rats (obtained from National Institute on Aging; 24 months on arrival) were given AIT-082 (30 mg/kg/day) in their drinking water or drinking water alone, for a period of 30 days (n=5 rats per group). After 30 days, animals were sacrificed and fresh tissues were dissected as described above. An additional set of young animals (n=5) was processed along with the aged rats for comparison.
Results are shown in FIGS. 53 (BDNF), 54 (NT3), 55 (GDNF), and 56 (NGF). As described above, for the results shown in these figures, aged rats (24 months of age) were given water (vehicle control; n=5) or water with AIT-082 (at 30 mg/kg/day; n=5 for 30 days). A separate group of young untreated animals was also included (n=5). Levels of each growth factor were determined in frontal cortex (F.Cor.), parietal cortex (P. Cor.), hippocampal formation (Hipp.), basal forebrain (B.F.), cerebellum (Cer.) or spinal cord (Cord) using a specific two-site ELISA.

NGF = assay: Summary of effects on growth factor mRNA and protein (Table R): NGF; parameters: key: ± = mRNA; + = protein; nt = not tested; details: Aged Brain
Excerpt: (§1) The constellation of effects of AIT-082 on production of mRNA encoding growth factors and on production of growth factor proteins is shown in Table R. The results summarized in […] show both transcriptional and translational effects on growth factors that are in the categories of neurotrophins, pleiotrophins, members of the S100 family of EF hand calcium binding proteins, and members of the TGFβ superfamily. As indicated, effects have been shown at both the mRNA (transcriptional) and protein (translational) levels.

NT-3 = assay: Summary of effects on growth factor mRNA and protein (Table R): NT-3; parameters: key: ± = mRNA; + = protein; nt = not tested
Excerpt: as §1

CNTF = assay: Summary of effects on growth factor mRNA and protein (Table R): CNTF; parameters: key: ± = mRNA; + = protein; nt = not tested
Excerpt: as §1

rats = details: oral or intraperitoneal route, preliminary
mice = details: oral or intraperitoneal route, preliminary
[1] = 79 different test systems

O=C(CCn1cnc2c(=O)[nH]cnc21)Nc1ccc(C(=O)O)cc1 [AIT-082, N-4-carboxyphenyl-3-(6-oxohydropurin-9-yl)propanamide]
inhibition of ligand binding (38 isolated receptors): no activity
binding to the adenosine receptor (adenosine receptor): does not bind
subjects performing significantly above chance/total number of subjects (Swiss Webster mice; Mild deficit, interval 60 sec): 6/6*
subjects performing significantly above chance/total number of subjects (Swiss Webster mice; Mild deficit, interval 90 sec): 4/6
subjects performing significantly above chance/total number of subjects (Swiss Webster mice; Mild deficit, interval 120 sec): 2/6
subjects performing significantly above chance/total number of subjects (Swiss Webster mice; Mild deficit, interval 150 sec): 1/6
subjects performing significantly above chance/total number of subjects (Swiss Webster mice; Mild deficit, interval 180 sec): 1/6
subjects performing significantly above chance/total number of subjects (Swiss Webster mice; Mild deficit, interval 210 sec): 0/6
subjects performing significantly above chance/total number of subjects (Swiss Webster mice; Moderate deficit, interval 30 sec): 4/6*
subjects performing significantly above chance/total number of subjects (Swiss Webster mice; Moderate deficit, interval 60 sec): 2/6
subjects performing significantly above chance/total number of subjects (Swiss Webster mice; Moderate deficit, interval 90 sec): 0/6
subjects performing significantly above chance/total number of subjects (Swiss Webster mice; Severe deficit, interval <10 sec): 0/6
Correct trials (mean number of correct responses per 10 trials ± S.E.) (C57BL/6 mice): 7.89 ± 0.54
BDNF protein levels over vehicle controls (BDNF; FFT-lesioned rats, 30 mg/kg/day, frontal cortex, significance not achieved): almost threefold
BDNF protein levels (BDNF; aged rats, 30 mg/kg/day 30 days, any brain region): no effect
BDNF protein levels over vehicle controls (BDNF; intact adult rats, 30 mg/kg/day in drinking water 7 days, frontal cortex): more than twofold
BDNF protein levels over vehicle controls (BDNF; intact adult rats, 3000 mg/kg/day, frontal cortex): not seen
BDNF protein levels over vehicle controls (BDNF; intact adult rats, spinal cord, not significant (p>0.05)): twofold
NGF, effect on mRNA/protein production (NGF): ±
NT-3, effect on mRNA/protein production (NT-3; Aged Brain): +
NT-3, effect on mRNA/protein production (NT-3; Cultured Cells): ±
NT-3, effect on mRNA/protein production (NT-3; Lesioned Spinal Cord): ±
NT-3, effect on mRNA/protein production (NT-3; Normal Brain): +
CNTF, effect on mRNA/protein production (CNTF; Lesioned Spinal Cord): ±
CNTF, effect on mRNA/protein production (CNTF; Normal Spinal Cord): ±
LD50 (rats): > 3000 mg/kg
LD50 (mice): > 3000 mg/kg
toxicity in standard profile [1]: absence of any toxicity
